The results in this text go back to patent US9809623B2, “α4β7 peptide monomer and dimer antagonists” (Protagonist Therapeutics, Inc., priority 2014, dated 2017).

Numbered stars: 1 amine (or outer) side, 2 acyl side, 3 side chain; on linkers, the order of the positions; unused ones are H or OH. Bridge positions count the residues as written; N and C are the ends. Square brackets hold non-standard residues; d marks the D form. Peptide text beside a SMILES is read from it. I, II: the chains in the order shown. Phe(4-tBu) = CC(C)(C)c1ccc(C[C@H](N)C(=O)O)cc1; Bip = N[C@@H](Cc1ccc(-c2ccccc2)cc1)C(=O)O; Diglycolyl = O=C(COCC(=O)[*:2])[*:1]; NMeR = CN[C@@H](CCCNC(=N)N)C(=O)O; Tic = O=C(O)[C@@H]1Cc2ccccc2CN1; Pen = CC(C)(S)[C@H](N)C(=O)O

In this assay the target is α4β7 (Homo sapiens, UniProt P13612+P26010). The experiment in a line: α4β7-MAdCAM Cell Adhesion Assay (RPMI 8866 human cells). Type of assay: cell-based. The arrangement: host or cells: RPMI 8866 human B lymphoblastoid cells. To be noted: Table 3-B, Potency (α4β7); range classes; read-out: α4β7 cell (Hu) IC50. In a few lines: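 Adhesion read-out: MTT absorbance at 570 nm minus no-cell wells, after three washes. Plates coated with rh MAdCAM-1/Fc received peptide dilutions plus 200,000 RPMI 8866 cells in Mn2+ (1 mM)-supplemented DMEM, 0.1% BSA, HEPES pH 7, incubated 30-45 min, 37 °C.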
Sequence of α4β7 (P13612 34-1032): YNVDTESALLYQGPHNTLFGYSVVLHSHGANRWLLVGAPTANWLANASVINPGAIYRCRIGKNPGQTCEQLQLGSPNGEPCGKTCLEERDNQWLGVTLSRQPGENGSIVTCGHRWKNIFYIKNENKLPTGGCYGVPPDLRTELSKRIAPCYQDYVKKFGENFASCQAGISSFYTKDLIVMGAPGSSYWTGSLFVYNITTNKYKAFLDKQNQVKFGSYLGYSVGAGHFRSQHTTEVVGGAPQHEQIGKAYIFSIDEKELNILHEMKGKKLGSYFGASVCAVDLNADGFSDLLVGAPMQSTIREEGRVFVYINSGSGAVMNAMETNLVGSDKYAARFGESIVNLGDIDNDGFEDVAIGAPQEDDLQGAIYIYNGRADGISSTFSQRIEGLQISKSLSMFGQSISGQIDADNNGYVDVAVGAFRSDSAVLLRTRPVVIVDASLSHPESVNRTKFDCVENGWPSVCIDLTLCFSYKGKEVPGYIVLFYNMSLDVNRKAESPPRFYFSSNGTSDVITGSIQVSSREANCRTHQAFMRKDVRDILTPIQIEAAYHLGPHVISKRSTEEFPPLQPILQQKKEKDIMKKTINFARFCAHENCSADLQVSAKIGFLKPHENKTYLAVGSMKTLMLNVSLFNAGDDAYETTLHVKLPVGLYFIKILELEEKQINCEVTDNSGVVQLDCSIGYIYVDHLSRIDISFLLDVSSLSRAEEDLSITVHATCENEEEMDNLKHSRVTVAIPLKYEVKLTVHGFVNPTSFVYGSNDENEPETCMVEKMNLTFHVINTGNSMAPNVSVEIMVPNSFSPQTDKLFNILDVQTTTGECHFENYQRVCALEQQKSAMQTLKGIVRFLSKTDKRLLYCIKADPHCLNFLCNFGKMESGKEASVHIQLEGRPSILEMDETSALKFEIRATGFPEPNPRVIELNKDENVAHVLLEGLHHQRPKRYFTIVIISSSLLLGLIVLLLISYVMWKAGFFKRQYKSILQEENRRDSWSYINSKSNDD
Sequence of α4β7 (P26010 20-798): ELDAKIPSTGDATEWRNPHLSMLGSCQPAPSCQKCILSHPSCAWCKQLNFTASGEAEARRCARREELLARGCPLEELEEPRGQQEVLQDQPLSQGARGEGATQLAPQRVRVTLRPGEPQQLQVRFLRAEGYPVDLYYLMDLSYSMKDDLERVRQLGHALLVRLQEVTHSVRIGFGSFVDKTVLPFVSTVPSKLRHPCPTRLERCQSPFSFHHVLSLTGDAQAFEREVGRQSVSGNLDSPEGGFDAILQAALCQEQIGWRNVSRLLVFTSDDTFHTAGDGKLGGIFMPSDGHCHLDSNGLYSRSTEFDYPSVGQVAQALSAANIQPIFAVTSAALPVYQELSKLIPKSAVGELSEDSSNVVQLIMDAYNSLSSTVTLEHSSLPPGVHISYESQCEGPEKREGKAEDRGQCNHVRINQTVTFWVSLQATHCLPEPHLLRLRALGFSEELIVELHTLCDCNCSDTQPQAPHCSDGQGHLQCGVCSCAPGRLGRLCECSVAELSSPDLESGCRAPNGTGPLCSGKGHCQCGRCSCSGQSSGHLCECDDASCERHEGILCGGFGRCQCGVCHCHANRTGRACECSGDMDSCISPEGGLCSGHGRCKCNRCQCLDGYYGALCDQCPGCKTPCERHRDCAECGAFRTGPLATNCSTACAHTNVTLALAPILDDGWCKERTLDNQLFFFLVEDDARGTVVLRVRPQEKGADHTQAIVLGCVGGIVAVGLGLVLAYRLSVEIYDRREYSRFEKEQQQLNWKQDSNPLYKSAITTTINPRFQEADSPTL
In the case of `CC(=O)N[C@@H]1C(=O)N(C)[C@@H](CCCNC(=N)N)C(=O)N[C@@H](CO)C(=O)N[C@@H](CC(=O)O)C(=O)N[C@@H]([C@@H](C)O)C(=O)N[C@@H](CC(C)C)C(=O)N[C@H](C(=O)N[C@@H](Cc2ccc(C(C)(C)C)cc2)C(=O)N[C@H](CCC(=O)O)C(=O)N[C@H](CCCCNC(=O)COCC(=O)NCCCC[C@@H](NC(=O)[C@@H](CCC(=O)O)NC(=O)[C@H](Cc2ccc(C(C)(C)C)cc2)NC(=O)[C@H]2NC(=O)[C@H](CC(C)C)NC(=O)[C@H]([C@@H](C)O)NC(=O)[C@H](CC(=O)O)NC(=O)[C@H](CO)NC(=O)[C@H](CCCNC(=N)N)N(C)C(=O)[C@@H](NC(C)=O)C(C)(C)SSC2(C)C)C(N)=O)C(N)=O)C(C)(C)SSC1(C)C` [compound 106] (I: Ac-[Pen][NMeR]SDTL[Pen][Phe(4-tBu)][dE][dK]-NH2 / II: Ac-[Pen][NMeR]SDTL[Pen][Phe(4-tBu)][dE][dK]-NH2; disulfide I:1-I:7, II:1-II:7; linker I:10-II:10 via Diglycolyl), the IC50 is less than 10 nM.

For the compound `CC(=O)N[C@@H]1C(=O)N(C)[C@@H](CCCNC(=N)N)C(=O)N[C@@H](CO)C(=O)N[C@@H](CC(=O)O)C(=O)N[C@@H]([C@@H](C)O)C(=O)N[C@@H](CC(C)C)C(=O)N[C@H](C(=O)N[C@@H](Cc2ccc(-c3ccccc3)cc2)C(=O)N[C@H](CCC(=O)O)C(=O)N[C@H](CCCCNC(=O)COCC(=O)NCCCC[C@@H](NC(=O)[C@@H](CCC(=O)O)NC(=O)[C@H](Cc2ccc(-c3ccccc3)cc2)NC(=O)[C@H]2NC(=O)[C@H](CC(C)C)NC(=O)[C@H]([C@@H](C)O)NC(=O)[C@H](CC(=O)O)NC(=O)[C@H](CO)NC(=O)[C@H](CCCNC(=N)N)N(C)C(=O)[C@@H](NC(C)=O)C(C)(C)SSC2(C)C)C(N)=O)C(N)=O)C(C)(C)SSC1(C)C` [compound 108] (I: Ac-[Pen][NMeR]SDTL[Pen][Bip][dE][dK]-NH2 / II: Ac-[Pen][NMeR]SDTL[Pen][Bip][dE][dK]-NH2; disulfide I:1-I:7, II:1-II:7; linker I:10-II:10 via Diglycolyl), the IC50 is 10 to 25 nM.

On to `CC(=O)N[C@@H]1C(=O)N(C)[C@@H](CCCNC(=N)N)C(=O)N[C@@H](CO)C(=O)N[C@@H](CC(=O)O)C(=O)N[C@@H]([C@@H](C)O)C(=O)N[C@@H](CC(C)C)C(=O)N[C@H](C(=O)N[C@@H](Cc2c[nH]c3ccccc23)C(=O)N2Cc3ccccc3C[C@H]2C(=O)N[C@H](CCCCNC(=O)COCC(=O)NCCCC[C@@H](NC(=O)[C@@H]2Cc3ccccc3CN2C(=O)[C@H](Cc2c[nH]c3ccccc23)NC(=O)[C@H]2NC(=O)[C@H](CC(C)C)NC(=O)[C@H]([C@@H](C)O)NC(=O)[C@H](CC(=O)O)NC(=O)[C@H](CO)NC(=O)[C@H](CCCNC(=N)N)N(C)C(=O)[C@@H](NC(C)=O)C(C)(C)SSC2(C)C)C(N)=O)C(N)=O)C(C)(C)SSC1(C)C` [compound 109] (I: Ac-[Pen][NMeR]SDTL[Pen]W[Tic][dK]-NH2 / II: Ac-[Pen][NMeR]SDTL[Pen]W[Tic][dK]-NH2; disulfide I:1-I:7, II:1-II:7; linker I:10-II:10 via Diglycolyl), for which the IC50 fell in the range of 100 to 500 nM.

Take `CC(=O)N[C@@H]1C(=O)N(C)[C@@H](CCCNC(=N)N)C(=O)N[C@@H](CO)C(=O)N[C@@H](CC(=O)O)C(=O)N[C@@H]([C@@H](C)O)C(=O)N[C@@H](CC(C)C)C(=O)N[C@H](C(=O)N[C@@H](Cc2c[nH]c3ccccc23)C(=O)N[C@H](Cc2c[nH]c3ccccc23)C(=O)N[C@H](CCCCNC(=O)COCC(=O)NCCCC[C@@H](NC(=O)[C@@H](Cc2c[nH]c3ccccc23)NC(=O)[C@H](Cc2c[nH]c3ccccc23)NC(=O)[C@H]2NC(=O)[C@H](CC(C)C)NC(=O)[C@H]([C@@H](C)O)NC(=O)[C@H](CC(=O)O)NC(=O)[C@H](CO)NC(=O)[C@H](CCCNC(=N)N)N(C)C(=O)[C@@H](NC(C)=O)C(C)(C)SSC2(C)C)C(N)=O)C(N)=O)C(C)(C)SSC1(C)C` [compound 110] (I: Ac-[Pen][NMeR]SDTL[Pen]W[dW][dK]-NH2 / II: Ac-[Pen][NMeR]SDTL[Pen]W[dW][dK]-NH2; disulfide I:1-I:7, II:1-II:7; linker I:10-II:10 via Diglycolyl): the IC50 lay in the range of 10 to 25 nM.
